Laboratory results taken from PubChem BioAssay (NCI).
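Following 48 hours of exposure in 96-well plates, responses at five concentrations were used to interpolate endpoints linearly. TGI denotes the concentration required for complete inhibition of growth.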

What was measured:
Test in all cases: inhibition of tumour cell growth, NCI panel, 48 h
SW-620 colon = test system: SW-620 colon
CAKI-1 renal = test system: CAKI-1 renal
786-0 renal = test system: 786-0 renal
UO-31 renal = test system: UO-31 renal
SK-MEL-28 melanoma = test system: SK-MEL-28 melanoma
OVCAR-5 ovarian = test system: OVCAR-5 ovarian
HCT-116 colon = test system: HCT-116 colon
SF-295 CNS = test system: SF-295 CNS
NCI-H226 lung = test system: NCI-H226 lung
KM12 colon = test system: KM12 colon
SK-MEL-2 melanoma = test system: SK-MEL-2 melanoma
ACHN renal = test system: ACHN renal
HOP-92 NSCLC = test system: HOP-92 NSCLC
HOP-62 NSCLC = test system: HOP-62 NSCLC
OVCAR-3 ovarian = test system: OVCAR-3 ovarian
COLO 205 colon = test system: COLO 205 colon
IGROV1 ovarian = test system: IGROV1 ovarian
M14 melanoma = test system: M14 melanoma
K-562 leukemia = test system: K-562 leukemia
A498 renal = test system: A498 renal

| SMILES | TGI (SW-620 colon) [µM] | TGI (CAKI-1 renal) [µM] | TGI (786-0 renal) [µM] | TGI (UO-31 renal) [µM] | TGI (SK-MEL-28 melanoma) [µM] | TGI (OVCAR-5 ovarian) [µM] | TGI (HCT-116 colon) [µM] | TGI (SF-295 CNS) [µM] | TGI (NCI-H226 lung) [µM] | TGI (KM12 colon) [µM] | TGI (SK-MEL-2 melanoma) [µM] | TGI (ACHN renal) [µM] | TGI (HOP-92 NSCLC) [µM] | TGI (HOP-62 NSCLC) [µM] | TGI (OVCAR-3 ovarian) [µM] | TGI (COLO 205 colon) [µM] | TGI (IGROV1 ovarian) [µM] | TGI (M14 melanoma) [µM] | TGI (K-562 leukemia) [µM] | TGI (A498 renal) [µM] |
| --- | --- | --- | --- | --- | --- | --- | --- | --- | --- | --- | --- | --- | --- | --- | --- | --- | --- | --- | --- | --- |
| CCOc1cc(NC(C)=O)ccc1C(=O)NN1C(=O)C(Oc2ccccc2)C1c1ccc(O)c(OC)c1 (configuration not stated) | > 100 | > 100 | > 100 | > 100 | > 100 | > 100 | > 100 | > 100 | > 100 | > 100 | 81.2 | > 100 | > 100 | > 100 | > 100 | 83.9 | > 100 | > 100 | > 100 | – |
| CC(C(=O)O)c1cnn(-c2ccccc2)c1-n1cccc1 (configuration not stated) | > 100 | > 100 | – | > 100 | > 100 | > 100 | > 100 | > 100 | > 100 | > 100 | > 100 | – | > 100 | > 100 | > 100 | > 100 | > 100 | – | > 100 | > 100 |
| CN(C)CC(CN(C)C)c1ccccn1 | > 100 | > 100 | > 100 | > 100 | > 100 | > 100 | > 100 | > 100 | > 100 | > 100 | > 100 | > 100 | > 100 | > 100 | > 100 | > 100 | > 100 | > 100 | > 100 | > 100 |
| CC[C@]12C=CCN3CC[C@@]4(c5ccc(OC)cc5N(C)[C@H]4[C@@](O)(C(=O)OC)[C@@H]1OC(C)=O)[C@@H]32 | > 200 | > 200 | – | > 92.8 | > 200 | > 200 | > 200 | > 200 | > 200 | > 200 | > 200 | – | 132 | > 200 | > 112 | > 200 | > 200 | – | > 200 | > 200 |
| O=c1c2ccccc2nnn1-c1n[nH]c2ccccc12 | > 100 | > 100 | > 100 | > 100 | > 100 | > 100 | > 100 | > 100 | – | > 100 | > 100 | > 100 | > 100 | > 100 | > 100 | > 100 | > 100 | > 100 | – | > 100 |
| Oc1ccc2ccccc2c1N=Nc1ccc(F)cc1 | > 100 | > 100 | > 100 | > 100 | > 100 | > 100 | > 100 | > 100 | – | > 100 | > 100 | > 100 | > 100 | > 100 | > 100 | > 100 | > 100 | > 100 | > 100 | > 100 |
| O=[N+]([O-])c1ccccc1N=Nc1c(O)sc2ccccc12 | > 100 | > 100 | – | > 100 | > 100 | > 100 | > 100 | > 100 | > 100 | > 100 | > 100 | > 100 | > 100 | > 100 | > 100 | > 100 | > 100 | > 100 | > 100 | > 100 |
| NCCc1nc(-c2nc(C(=O)O)cs2)cs1 | > 100 | > 100 | > 100 | > 100 | > 100 | > 100 | > 100 | > 100 | – | > 100 | > 100 | > 100 | > 100 | > 100 | > 100 | > 100 | > 100 | > 100 | > 100 | > 100 |
| O=C(Nc1ccc2nc(-c3ccccc3)cn2c1)Oc1ccccc1 | > 100 | > 100 | > 100 | > 100 | > 100 | > 100 | > 100 | > 100 | > 100 | > 100 | > 100 | > 100 | > 100 | > 100 | > 100 | > 100 | > 100 | > 100 | > 100 | > 100 |
| CC[C@@H]1/C=C/C=C/C[C@H](C)[C@@H](O)[C@](C)(O)C(=O)[C@H](C)[C@@H](O)[C@H](C)C(=O)[C@H](C)[C@@H](O)[C@H](C)/C=C/C(=O)O[C@H]2[C@@H](C)[C@@H](CC1)O[C@]1(O[C@H](CC(C)O)[C@H](C)CC1=O)[C@@H]2C (some centres not stated) | > 25 | 18 | 12.1 | > 20.4 | > 19.6 | 8.25 | 6.26 | 0.114 | – | 13 | 9.61 | 9.19 | 9.98 | 8.41 | 13.1 | 5.07 | 16.4 | 9.41 | 14.5 | 7.93 |
| CCOCNC(=O)N(COCC)COCC | > 100 | > 100 | – | > 100 | > 100 | > 100 | > 100 | > 100 | > 100 | > 100 | > 100 | > 100 | – | > 100 | > 100 | > 100 | > 100 | > 100 | > 100 | > 100 |
| CC(C)CCN=c1cc2n(-c3ccc(Cl)cc3)c3ccccc3nc-2cc1Nc1ccc(Cl)cc1 | > 70.3 | > 67.6 | – | 18.9 | > 82.8 | 35.3 | 11.4 | 44.2 | 20.7 | > 41.2 | 12.3 | – | 16.8 | 26.1 | 6.61 | 12.9 | 17.9 | – | 26.4 | 48.5 |
